Measurements as given in patent publication US8501166B2, “Pyrimidinyl indole compounds” (Hutchison Medipharma Limited, priority 2010, dated 2013).
Counter-ions that a name gives are not always drawn.

Tests used:
[1] = system: LPS-induced plasma IL-6 production; assay: LPS-induced plasma cytokine production in mouse, IL-6; assay type: in vivo, Balb/c mice; conditions: oral 1 h before LPS 0.4 mg/kg i.p.
Protocol: Alternately, the compound is screened for its ability to inhibit the LPS-induced cytokine production in rat plasma according to the method reported in the literature (Ziegelbauer K, Gantner F, Lukacs N W, et al. Br J. Pharmacol. 2005,145(2):178-92). Briefly, Lewis rats (male, body weight 140 g-180 g) are used in the experiments. Animals (8/group) are given 1 to 100 mg/kg of the testing compound (suspension in 35% solutol & 60% PEG400 & 5% PG) or vehicle by oral gavage at 1 h prior to intraperitoneal administration of LPS 0.4 mg/kg. Ninety minutes after the intraperitoneal administration of LPS, blood is collected in heparin anticoagulated tubes to measure TNFα using R&D System ELISA Kit based on the general Kit protocols. The plasma sample is diluted 100 fold with the dilution buffer and 50 μL of diluted sample is used in each measurement. The plate is read on a SPECTRAMAX® M2e Plus Plate Reader and TNFα levels are analyzed based on the standard curve. The drug levels in plasma are measured with LC-MS-MS. […] Alternately, the compound is screened for its ability to inhibit the LPS-induced cytokine production in mouse plasma. Balb/c mice (female, body weight 18-20 g) are used in the experiments. […] The plate is read on a SPECTRMAX® M2e Plus Plate Reader and the data is analyzed using a standard curve.

IKKβ = target: T1, IKKβ (Homo sapiens, UniProt O14920); assay: IKKβ kinase assay (IKKβ-Inhibitor Screening Kit, ELISA); assay type: biochemical; conditions: IKKβ-Inhibitor Screening Kit (Calbiochem), GST-IκBα substrate
T1 sequence (O14920 1-756): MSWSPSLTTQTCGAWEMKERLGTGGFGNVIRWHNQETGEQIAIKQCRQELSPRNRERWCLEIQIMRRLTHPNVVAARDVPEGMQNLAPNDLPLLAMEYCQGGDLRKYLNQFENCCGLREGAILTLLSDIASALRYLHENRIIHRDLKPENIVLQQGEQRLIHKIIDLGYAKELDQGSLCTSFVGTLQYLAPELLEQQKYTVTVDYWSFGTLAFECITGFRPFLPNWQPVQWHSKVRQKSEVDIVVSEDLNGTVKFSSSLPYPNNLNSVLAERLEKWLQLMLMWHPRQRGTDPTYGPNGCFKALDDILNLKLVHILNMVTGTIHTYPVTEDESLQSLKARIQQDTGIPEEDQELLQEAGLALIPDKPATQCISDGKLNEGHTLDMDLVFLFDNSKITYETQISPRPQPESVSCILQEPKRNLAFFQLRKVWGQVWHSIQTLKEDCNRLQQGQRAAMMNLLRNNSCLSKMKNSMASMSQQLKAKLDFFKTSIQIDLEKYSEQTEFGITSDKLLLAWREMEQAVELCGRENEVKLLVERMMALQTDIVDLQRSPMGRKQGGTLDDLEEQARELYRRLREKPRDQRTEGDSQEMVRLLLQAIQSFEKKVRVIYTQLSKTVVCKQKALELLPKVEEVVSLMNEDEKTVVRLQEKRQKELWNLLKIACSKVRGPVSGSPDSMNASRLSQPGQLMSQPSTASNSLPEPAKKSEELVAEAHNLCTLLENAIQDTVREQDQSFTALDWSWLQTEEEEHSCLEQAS
Protocol: The IKKβ kinase assay is used to assess the effect of a compound of the present invention on the enzymatic activity of IKKβ kinase. The IKKβ kinase assay is performed in vitro using an IKKβ-Inhibitor Screening Kit (Calbiochem., Cat.No. CBA044). All reactions (50 μL) are started by adding 10 μL of kinase buffer (kit component, No. JA9130), 10 μL of GST-IKBa substrate (IKKb substrate, kit component, No. JA9127), 10 μL of IKKβ (2.5 ng/well, kit component, No. 481404), 10 μL of the test compound (DMSO solution) or H2O, and 10 μL of ATP/MgCl2 (kit component, No. JA7914) and then incubating at 30° C. for 30 min. The contents of the wells are then discarded. Each well is washed 3 times with 200 μL 1× wash buffer (kit component, NO. JA1617, 1:20 dilution). 100 μL of anti-phospho IκBα (Ser^32/Ser^36) antibody conjugate (kit component, No. JA9126) is added to each well and incubated at room temperature for 1 h. Then the wells are washed 3 times with 1× wash buffer (kit component, NO. JA1617, 1:20 dilution), […] and 100 μL HRP-conjugate (kit component, No. JA7643) is added to each well and incubated at room temperature for 1 h. Then the wells are washed 3 times with 200 μL 1× wash buffer (kit component, NO. JA1617, 1:20 dilution) and 100 μL TMB substrate conjugate (kit component, No. JA1608) is added to each well. The plate is incubated at room temperature until the color changes. […]

| SMILES | ED50 [1] [mg/kg] | IC50 (IKKβ) [nM] |
| --- | --- | --- |
| Cl.O=C(NC1CC1)c1cccc2[nH]c(-c3nc(N[C@@H]4CCC[C@H]4O)ncc3Cl)cc12 [Example 2, 2-{5-Chloro-2-[(1R,2R)-2-hydroxycyclopentylamino]pyrimidin-4-yl}-N-cyclopropyl-1H-indole-4-carboxamide hydrochloride] | 15.1 |  |
| O=C(NC1CC1)c1cccc2[nH]c(-c3nc(N[C@@H]4CCC[C@@H]4O)ncc3Cl)cc12 [Example 1, 2-{5-Chloro-2-[(1R,2S)-2-hydroxycyclopentylamino]pyrimidin-4-yl}-N-cyclopropyl-1H-indole-4-carboxamide hydrochloride] |  | 15 |
